# Values of other authors, collected in patent publication US20240156825A1, “USE OF SELECTIVE VEGFR2 AND FGFR1 INHIBITORS” (Fountain Therapeutics Inc., priority 2022, published 2024).
# Test system: any gene target
# Details: Table 2; lowest reported IC50 to any gene target; read-out: Min IC50_μM; cited from earlier work
row,Compound,IC50 [nM]
1,C[C@@H](Oc1ccc2[nH]nc(/C=C/c3cnn(CCO)c3)c2c1)c1c(Cl)cncc1Cl [compound 46944259],2.6
2,COc1cc(CCc2cc(NC(=O)c3ccc(N4C[C@@H](C)N[C@@H](C)C4)cc3)n[nH]2)cc(OC)c1 [compound 51039095],0.4
3,COc1ccc(OC)c(N(CCNC(C)C)c2ccc3ncc(-c4cnn(C)c4)nc3c2)c1 [compound 54591211],151
4,COc1cc(OC)cc(N(CC#Cc2cccc(N)n2)c2ccc3ncc(-c4cnn(C)c4)nc3c2)c1 [compound 67466417],42.7
5,COc1cc(OC)cc(N(CC#Cc2nccc(OC)n2)c2ccc3ncc(-c4cnn(C)c4)nc3c2)c1 [compound 67467703],7.41
6,CNCCN(c1cc(OC)cc(OC)c1)c1ccc2ncc(-c3cnn(CC(=O)NC)c3)nc2c1 [compound 68208748],2.57
7,COc1cc(OC)cc(N(CCNCC2CC2)c2ccc3ncc(-c4cnn(C)c4)nc3c2)c1 [compound 68208778],3.02
8,COc1cc(OC)cc(N(C[C@@H]2CCCN2)c2ccc3ncc(-c4cnn(C)c4)nc3c2)c1 [compound 68208803],3.16
9,COc1cc(OC)cc(N(Cc2ccccc2Cl)c2ccc3ncc(-c4cnn(C)c4)nc3c2)c1 [compound 68208812],61.7
10,COc1cc(OC)cc(N(CCCN)c2ccc3ncc(-c4cn[nH]c4)nc3c2)c1 [compound 68208813],1.18
11,CCN(CC)CCN(c1cc(OC)cc(OC)c1)c1ccc2ncc(-c3cnn(C)c3)nc2c1 [compound 68208850],3.02
12,COc1cc(OC)cc(N(c2ccc3ncc(-c4cnn(C)c4)nc3c2)C(C)CNC(C)C)c1 (stereo not drawn) [compound 68208877],4.9
13,COc1cc(OC)cc(N(CCN2CCC(CCO)CC2)c2ccc3ncc(-c4cnn(C)c4)nc3c2)c1 [compound 68208907],2.88
14,COc1cc(OC)cc(N(CC#Cc2cccc(CO)n2)c2ccc3ncc(-c4cnn(C)c4)nc3c2)c1 [compound 68208920],46.8
15,CCn1cc(-c2cnc3ccc(N(CCNC)c4cc(OC)cc(OC)c4)cc3n2)cn1 [compound 68208927],3.55
16,COc1cc(OC)cc(N(Cc2ncccn2)c2ccc3ncc(-c4cnn(C)c4)nc3c2)c1 [compound 68208969],8.13
17,COc1cc(OC)cc(N(CCNC(C)C)c2ccc3ncc(-c4cnn(C5CCNCC5)c4)nc3c2)c1 [compound 68208989],2.88
18,COc1cc(OC)cc(N(CCCN2CCC(N)C2)c2ccc3ncc(-c4cnn(C)c4)nc3c2)c1 (stereo not drawn) [compound 68209028],1.41
19,COc1cc(OC)cc(N(CCN2CCCCC2)c2ccc3ncc(-c4cnn(C)c4)nc3c2)c1 [compound 68209029],2.24
20,COc1cc(OC)cc(N(CCN(C)C(C)C)c2ccc3ncc(-c4cnn(C)c4)nc3c2)c1 [compound 68209043],3.89
21,COc1cc(OC)cc(N(CCNC(C)C)c2ccc3ncc(-c4cnn(C)c4C)nc3c2)c1 [compound 68209154],4.68
22,COc1cc(OC)cc(N(CCNCCO)c2ccc3ncc(-c4cnn(C)c4)nc3c2)c1 [compound 68209464],2.24
23,COc1cc(N(CCNC(C)C)c2ccc3ncc(-c4cnn(C)c4)nc3c2)cc2c1OCO2 [compound 68209505],2.88
24,COc1cc(OC)c(Cl)c(N(CCNC(C)C)c2ccc3ncc(-c4cnn(C)c4)nc3c2)c1Cl [compound 88888615],9.12
25,COc1cc(OC)cc(N(CCNC(C)C)c2ccc3ncc(-c4cnn(C)c4)nc3c2)c1 [compound 89447047],1.74

# Same assay, conditions: lowest reported IC50 to any gene target; read-out: Min IC50_μM; cited from earlier work
row,Compound,IC50 [nM]
1,CN1CCN(CCCNc2ncc3cc(-c4c(Cl)cccc4Cl)c(NC(=O)NC4CCCCC4)nc3n2)CC1 [compound 5328158],31
2,COc1cc(OC)cc(-c2cc3cnc(NCCCCCN4CCOCC4)cc3nc2NC(=O)NC(C)(C)C)c1 [compound 5330134],0.5
3,COC(=O)C1=C(c2ccccc2)c2ccccc2C1=O [compound 10015651],5100
4,CONC(=O)c1cc(Nc2ncnn3cc(-c4nnc(C(C)C)o4)c(C(C)C)c23)c(F)cc1F [compound 11442803],1
5,COc1cc(OC)cc(-c2cc3cnc(N)nc3n(C)c2=O)c1 [compound 44294299],126
6,COc1cc(OC)cc(N(CC#Cc2cc(C)ccn2)c2ccc3ncc(-c4cnn(C)c4)nc3c2)c1 [compound 67466880],9.33
7,COc1cc(OC)cc(N(CCCc2cc(C)ccn2)c2ccc3ncc(-c4cnn(C)c4)nc3c2)c1 [compound 68208924],10.7
8,COc1cc(OC)cc(N(CCN2CCC(N(C)C)CC2)c2ccc3ncc(-c4cnn(C)c4)nc3c2)c1 [compound 68209057],5.13
9,COc1cc(OC)cc(N(CCN2CCC(C(C)(C)O)CC2)c2ccc3ncc(-c4cnn(C)c4)nc3c2)c1 [compound 68209085],3.89
10,CNC[C@H](O)CN(c1cc(OC)cc(OC)c1)c1ccc2ncc(-c3cnn(C)c3)nc2c1 [compound 68209125],1.78
11,CCOC(=O)C1CCN(CCN(c2cc(OC)cc(OC)c2)c2ccc3ncc(-c4cnn(C)c4)nc3c2)CC1 [compound 68209310],3.39
12,COc1cc(OC)cc(N(CC(O)CN2CCCCC2)c2ccc3ncc(-c4cnn(C)c4)nc3c2)c1 (stereo not drawn) [compound 68209482],2.95

# Same assay, conditions: next lowest IC50 value to any gene target; Table 3; read-out: Min IC50_μM; cited from earlier work
row,Compound,IC50 [nM]
1,CNC(=O)c1ccccc1Sc1ccc2c(/C=C/c3ccccn3)n[nH]c2c1 [compound 6450551],0.1
2,CCCNC(=O)Nc1ccc(Oc2ncnc3cc(OC)c(OC)cc23)cc1Cl [compound 9549295],1
3,Oc1ccc(-c2cnn3cc(-c4ccc(OCCN5CCOCC5)cc4)cnc23)cc1O [compound 52944268],1
4,COc1cc2c(Nc3ccc(Cl)c(Cl)c3F)ncnc2cc1OC[C@@H]1CN2CCCC[C@H]2C(=O)N1 [compound 57802612],50
5,COc1cc2c(Nc3ccc(Cl)c(Cl)c3F)ncnc2cc1OC[C@@H]1CN2CCCC[C@@H]2C(=O)N1 [compound 57802634],50

# Same assay, conditions: next lowest IC50 value to any gene target; read-out: Min IC50_μM; cited from earlier work
row,Compound,IC50 [nM]
1,Clc1ccc(Nc2nnc(Cc3ccncc3)c3ccccc23)cc1 [compound 151193],77
2,Clc1ccc(Nc2nnc(Cc3ccncc3)c3ccccc23)cc1 [compound 151194],54
3,CNC(=O)c1cc(Oc2ccc(NC(=O)Nc3ccc(Cl)c(C(F)(F)F)c3)cc2)ccn1 [compound 216239],0.2
4,COc1cc2c(Nc3ccc(Br)cc3F)ncnc2cc1OCC1CCN(C)CC1 [compound 3081361],11
5,COc1cc2ncnc(Nc3ccc(Cl)cc3F)c2cc1OC [compound 5329006],1000
6,O=C(Nc1cccc(C(F)(F)F)c1)c1ccccc1NCc1ccncc1 [compound 6398883],18
7,Cc1cccc(NC(=O)Nc2ccc(-c3csc4ncnc(N)c34)cc2)c1 [compound 6539985],2
8,O=C(Nc1ccc(Cl)cc1)c1ccccc1NCc1ccncc1 [compound 9797919],180
9,COc1cc2nccc(Oc3ccc(NC(=O)NC4CC4)c(Cl)c3)c2cc1C(N)=O [compound 9823820],5.2
10,Cc1ccc(Nc2nccc(N(C)c3ccc4c(C)n(C)nc4c3)n2)cc1S(N)(=O)=O [compound 10113978],10
11,COc1cc2nccc(Oc3ccc4c(C(N)=O)cccc4c3)c2cc1C(N)=O [compound 11211389],390
12,O=C(NCc1ccccc1)c1cc2c(-c3ccccc3)n[nH]c2s1 [compound 11359538],2000
13,COc1ccc(-c2ccc(NC(=O)Nc3cccc(C(F)(F)F)c3)cc2)c2c(N)noc12 [compound 11374110],16
14,COc1ccc(-c2ccc(NC(=O)Nc3cc(C)ccc3F)cc2)c2c(N)noc12 [compound 11429654],24
15,COc1ccc(-c2ccc(NC(=O)Nc3cccc(Cl)c3)cc2)c2c(N)noc12 [compound 11429729],30
16,COc1cc2nccc(Oc3ccc4c(C(=O)NC5CC5)cccc4c3)c2cc1OC [compound 11441375],27
17,CCNC(=O)c1cccc2cc(Oc3ccnc4cc(OC)c(OC)cc34)ccc12 [compound 11486459],46

row,Compound,IC50 [nM]
1,Nc1[nH]nc2nccc(-c3ccc(NC(=O)Nc4cccc(C(F)(F)F)c4)cc3)c12 [compound 11495270],2
2,Cc1cccc(NC(=O)Nc2ccc(-c3cncc4c3c(N)nn4C)cc2)c1 [compound 11588815],2
3,CNC(=O)c1cccc2cc(Oc3ccnc4cc(OC)c(OC)cc34)ccc12 [compound 11749561],110
4,CCNC(=O)Nc1ccc(Oc2ncnc(N)c2/C=N/OC)cc1Cl [compound 16742063],183
5,COc1cc2nccc(Oc3ccc4c(C(=O)Nc5ccc(Cl)cc5)cccc4c3)c2cc1OC [compound 24757938],0.5
6,COc1cc2ncnc(Oc3ccc4c(C(N)=O)cccc4c3)c2cc1OC [compound 24823094],680
7,COc1ccc2c(Oc3ccc4c(C(N)=O)cccc4c3)ccnc2c1 [compound 24823095],130
8,C[C@@H](Nc1ncnc2[nH]c(-c3ccc(CNCCCCCCCC(=O)NO)cc3)cc12)c1ccccc1 [compound 24900644],100
9,COc1cc2nccc(Oc3ccc(NC(=O)C4(C(=O)Nc5ccc(F)cc5)CC4)cc3)c2cc1OC [compound 25102847],1.3
10,Cc1n[nH]c2sc(C(=O)NCc3ccccc3)cc12 [compound 44405941],16000
11,Cc1n[nH]c2sc(C(N)=O)c(NC(=O)c3ccccc3Cl)c12 [compound 44405999],9000
12,O=C(NC1CCCCC1)c1cc2c(-c3ccccc3)n[nH]c2s1 [compound 44406074],11000
13,Nc1ncnc2snc(-c3ccc(NC(=O)Nc4cc(C(F)(F)F)ccc4F)cc3)c12 [compound 44414779],22
14,COc1ccc(N(C)c2ncnc3occ(C)c23)cc1 [compound 44555430],12.3
15,c1ccc(-c2cnc3cncc(Nc4ccc(N5CCCCC5)cc4)c3n2)cc1 [compound 57332840],2020
16,COc1ccc(-c2cnc3c(-c4cn[nH]c4)cnn3c2)cc1 [compound 57339386],16
